Values of other authors as cited in patent publication US20260199417A1, “OPHTHALMIC FORMULATION FOR TOPICAL USE CONTAINING HELENALIN, 11A,13-DIHYDRO HELENALIN AND FLAVONOIDS FROM ARNICA MONTANA EXTRACT AND SODIUM HYALURONATE, AND USE THEREOF BY HUMANS TO TREAT DRY EYE SYNDROME” (CENTRO DE RETINA MÉDICA Y QUIRÚRGICA, S.C., priority 2022, published 2026).

Test system: NF kappa-B
Conditions: T cells, B cells, and epithelial cells

Structure (SMILES) | Activation of NF kappa-B
C[C@@H]1C[C@H]2OC(=O)[C@@H](C)[C@H]2[C@H](O)[C@]2(C)C(=O)C=C[C@@H]12 [11-α, 13-dihydrohelenalin] | inhibited
C=C1C(=O)O[C@@H]2C[C@@H](C)[C@@H]3C=CC(=O)[C@@]3(C)[C@@H](O)[C@H]12 [helenalin] | inhibited
